The text below walks through data of ChEMBL document CHEMBL4414633, “Investigation of the Factors That Dictate the Preferred Orientation of Lexitropsins in the Minor Groove of DNA” (J Med Chem, 2019).

The structures appear in SMILES notation. Activity calls are given as the source filed them. The rule behind the calls is not given here.

Assay [1] is described as follows: Binding affinity to synthetic d(CGACTAGTCG)2 DNA sequence by NMR analysis.
Assay [2] can be described thus: Binding affinity to synthetic d(5'-GCGACTAGTCGC-3') DNA sequence assessed as change in heat by ITC assay. Background: ITC needs no label: the signal is the heat of the interaction.
Assay [3] in a line: Binding affinity to synthetic d(5'-GCGAGTACTCGC-3') DNA sequence assessed as change in heat by ITC assay.

`CC(C)c1sc(NC(=O)c2cc(NC(=O)c3cc(NC=O)cn3C)cn2C)nc1C(=O)NCCCN(C)C`: the outcome in assay [1] was Active.

In the case of `CC(C)c1sc(NC(=O)CCCN(C)C)nc1C(=O)Nc1cc(C(=O)Nc2cc(C(N)=O)n(C)c2)n(C)c1`, the result in assay [2] and in assay [3] was inactive.
